Experiment [1] concerns the target T1, 5-HT2A (Homo sapiens, UniProt P28223). In words: Serotonin 5-HT2A in vitro cellular IPOne agonism assay. As to conditions: CHO-K1 cells, IPOne HTRF, agonist mode. On the set-up: host or cells: CHO-K1. The experiment is classed as cell-based. As for the experimental part: Serotonin 5-HT2A In Vitro Cellular IPOne Agonism Assay. The 5-HT2A IPOne HTRF assay was performed at Epics Therapeutics S.A. (Belgium, FAST-0505I) using conventional methods. Briefly, CHO-K1 cells expressing human recombinant 5-HT2A receptor grown to mid-log phase in culture media without antibiotics were detached with PBS-EDTA, centrifuged, and resuspended in medium without antibiotics buffer. 20,000 cells are distributed in a 96 well plate and incubated overnight at 37° C. with 5% Co2.
For agonist testing, the medium was removed and […] of assay buffer plus 20 μl of test compound or reference agonist were added in each well. The plate was incubated for 60 min. at 37° C. with 5% CO2.
(§1) After addition of the lysis buffer containing IP1-d2 and anti-IP1 cryptate detection reagents, plates were incubated 1-hour at room temperature, and fluorescence ratios were measured according to the manufacturer specification, with the HTRF kit.
On the technique in general: Time-resolved FRET reads energy transfer from a long-lived donor to a nearby acceptor.

The target of experiment [2] is T1, 5-HT2A. In words: Serotonin 5-HT2A in vitro cellular IPOne antagonism assay. Further details: host or cells: CHO-K1. As to conditions: CHO-K1 cells, IPOne HTRF, reference agonist a-Me-5HT. The experiment is classed as cell-based. As for the experimental part: Serotonin 5-HT2A and 5-HT2C In Vitro Cellular IPOne Antagonism Assay. The 5-HT2A and 5-HT2C IPOne HTRF assay was performed at Epics Therapeutics S.A. (Belgium, FAST-0505I) in antagonism mode using conventional methods. Briefly, CHO-K1 cells expressing human recombinant 5-HT2A or 5-HT2C receptor grown to mid-log phase in culture media without antibiotics were detached with PBS-EDTA, centrifuged, and resuspended in medium without antibiotics buffer. 20,000 cells were distributed in a 96 well plate and incubated overnight at 37° C. with 5% C02.
For antagonist testing, a reference agonist a-Me-5HT was added and fluorescence signal monitored for several minutes, followed by addition of 20 μlof assay buffer plus 20 μl of test compound or reference antagonist ketanserin, in each well. The plate was incubated for 60 min. at 37° C. with 5% CO2.
as §1

Experiment [3] concerns the target T1, 5-HT2A. Nature of the experiment: Serotonin 5-HT2A in vitro radioligand binding competition assay ([3H]-DOI). Further details: purchased Epics Therapeutics S. A. (Belgium) FAST-0505B. Conditions: [3H]-DOI competition, membrane extracts. The procedure:
Serotonin 5-HT2A In Vitro Radioligand Binding Competition Assay. The 5-HT2A radioligand binding competition assay was performed at Epics Therapeutics S. A. (Belgium, FAST-0505B) using conventional methods. Briefly, competition binding was performed in duplicate in the wells of a 96 well plate (Master Block, Greiner, 786201) containing binding buffer (optimized for each receptor), membrane extracts (amount of protein/well optimized for each receptor), radiotracer [^3H]-DOI (final concentration optimized for each receptor) and test compound. Nonspecific binding was determined by co-incubation with 200-fold excess of cold competitor. The samples were incubated in a final volume of 0.1 ml at a temperature and for a duration optimized for each receptor and then filtered over filter plates. Filters were washed six times with 0.5 ml of ice-cold washing buffer (optimized for each receptor) and 50 μl of Microscint 20 (Packard) were added in each well. The plates were incubated 15 min on an orbital shaker and then counted with a TopCount™ for 1 min/well.

T1 sequence (P28223 whole entry): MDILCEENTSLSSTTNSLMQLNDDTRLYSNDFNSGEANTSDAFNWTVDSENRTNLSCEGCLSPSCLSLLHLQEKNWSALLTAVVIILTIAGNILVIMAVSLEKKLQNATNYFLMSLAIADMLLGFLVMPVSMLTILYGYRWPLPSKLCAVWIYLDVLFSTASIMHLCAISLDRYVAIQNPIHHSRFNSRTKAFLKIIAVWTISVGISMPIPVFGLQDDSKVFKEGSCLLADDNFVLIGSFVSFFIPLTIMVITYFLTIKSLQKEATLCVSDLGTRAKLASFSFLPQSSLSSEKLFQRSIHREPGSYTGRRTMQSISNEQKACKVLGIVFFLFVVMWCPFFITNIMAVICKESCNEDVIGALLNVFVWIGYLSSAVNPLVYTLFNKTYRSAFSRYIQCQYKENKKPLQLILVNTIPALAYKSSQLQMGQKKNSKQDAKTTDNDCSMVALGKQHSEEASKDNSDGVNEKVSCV

In the case of `CN1CC(n2ccc3cc(C#N)ccc32)C1` [Compound 37, 1-(1-methylazetidin-3-yl)-1H-indole-5-carbonitrile], the EC50 on 5-HT2A [1] was over 10000 nM. For the same compound, the IC50 on 5-HT2A [2] and at 5-HT2A [3] was over 10000 nM each time.
Compound `Clc1ccc2c(ccn2C2CNC2)c1` [Compound 24, 1-(azetidin-3-yl)-5-chloro-1H-indole] had an EC50 on 5-HT2A [1] of over 10000 nM. For the same compound, the IC50 on 5-HT2A [2] was 101 to 1000 nM; on 5-HT2A [3] it was 1000 to 10000 nM.
Turning to `Cc1cn(C2CCN(C(C)C)C2)c2ccc(F)cc12` (centres unmarked) [Compound 18, 5-fluoro-1-(1-isopropylpyrrolidin-3-yl)-3-methyl-1H-indole], on 5-HT2A [1], the EC50 is over 10000 nM. In addition, on 5-HT2A [3], the IC50 lay in the range of 1000 to 10000 nM.
`CCN1CCC(n2ccc3c(F)c(F)ccc32)C1` (centres unmarked) [Compound 17, 1-(1-ethylpyrrolidin-3-yl)-4,5-difluoro-1H-indole]: the EC50 at 5-HT2A [1] was over 10000 nM. For the same compound, the IC50 at 5-HT2A [2] and on 5-HT2A [3] was 1000 to 10000 nM in each case.
`Cc1cn(C2CN(C)C2)c2ccc(F)cc12` [Compound 5, 5-fluoro-3-methyl-1-(1-methylazetidin-3-yl)-1H-indole] returned an EC50 on 5-HT2A [1] of over 10000 nM. Further, the IC50 fell in the range of 1000 to 10000 nM at 5-HT2A [2] and 101 to 1000 nM at 5-HT2A [3].
The matching figures for `Cc1cn(C2CNC2)c2ccc(F)cc12` [Compound 1, 1-(azetidin-3-yl)-5-fluoro-3-methyl-1H-indole]: over 10000 nM, 1000 to 10000 nM and 101 to 1000 nM.
`CN1CC(n2ccc3cc(F)ccc32)C1` [Compound 30, 5-fluoro-1-(1-methylazetidin-3-yl)-1H-indole] gave an EC50 on 5-HT2A [1] of over 10000 nM. Besides, the 50% inhibitory concentration (IC50) on 5-HT2A [2] and at 5-HT2A [3] was 101 to 1000 nM each time.
In turn, `N#Cc1ccc2c(ccn2C2CNC2)c1` [Compound 25, 1-(azetidin-3-yl)-1H-indole-5-carbonitrile] showed an EC50 on 5-HT2A [1] of over 10000 nM. The IC50 at 5-HT2A [2] and on 5-HT2A [3] was over 10000 nM in each case.
As to `CN1CC(n2ccc3c(F)c(F)ccc32)C1` [Compound 6, 4,5-Difluoro-1-(1-methylazetidin-3-yl)-1H-indole], the EC50 on 5-HT2A [1] is over 10000 nM. The IC50 at 5-HT2A [2] and on 5-HT2A [3] was 101 to 1000 nM throughout.
At 5-HT2A [1], `Fc1ccc2c(ccn2C2CNC2)c1` [Compound 27, 1-(azetidin-3-yl)-5-fluoro-1H-indole] yielded an EC50 of over 10000 nM. The IC50 on 5-HT2A [2] and on 5-HT2A [3] was 101 to 1000 nM in each case.
For `Fc1ccc2c(ccn2C2CCNCC2)c1F` [Compound 4, 4,5-difluoro-1-(piperidin-4-yl)-1H-indole], on 5-HT2A [1], the EC50 is over 10000 nM. The IC50 at 5-HT2A [2] and at 5-HT2A [3] was 101 to 1000 nM each time.
On to `CN1CC(n2ccc3cc(Cl)ccc32)C1` [Compound 36, 5-chloro-1-(1-methylazetidin-3-yl)-1H-indole], for which the EC50 on 5-HT2A [1] is over 10000 nM. Also, the half-inhibitory concentration (IC50) on 5-HT2A [2] and on 5-HT2A [3] was over 10000 nM each time.
On 5-HT2A [1], `Cc1cn(C2CCNC2)c2ccc(F)cc12` (centres unmarked) [Compound 14, 5-fluoro-3-methyl-1-(pyrrolidin-3-yl)-1H-indole] yielded an EC50 of 101 to 1000 nM. The concentration for half-maximal inhibition (IC50) at 5-HT2A [2] and at 5-HT2A [3] was 101 to 1000 nM in each case.
The compound `Fc1cccc2ccn(C3CNC3)c12` [Compound 26, 1-(azetidin-3-yl)-7-fluoro-1H-indole] gave a concentration for a half-maximal effect (EC50) at 5-HT2A [1] of 1000 to 10000 nM. Further, the half-inhibitory concentration (IC50) on 5-HT2A [2] and on 5-HT2A [3] was 1000 to 10000 nM throughout.
In turn, `Fc1ccc2c(ccn2C2CCN(C3COC3)C2)c1F` (centres unmarked) [Compound 21, 4,5-difluoro-1-(1-(oxetan-3-yl)pyrrolidin-3-yl)-1H-indole] had an EC50 on 5-HT2A [1] of over 10000 nM. At 5-HT2A [3], this compound had an IC50 of over 10000 nM.
In turn, `COCCN1CCC(n2cc(C)c3cc(F)ccc32)C1` (centres unmarked) [Compound 22, 5-Fluoro-1-(1-(2-methoxyethyl)pyrrolidin-3-yl)-3-methyl-1H-indole] had an EC50 on 5-HT2A [1] of over 10000 nM. For the same compound, the IC50 at 5-HT2A [3] lay in the range of 1000 to 10000 nM.
Regarding `CC(C)N1CCC(n2ccc3c(F)c(F)ccc32)C1` (centres unmarked) [Compound 19, 4,5-difluoro-1-(1-isopropylpyrrolidin-3-yl)-1H-indole], the EC50 at 5-HT2A [1] was over 10000 nM. The compound further yielded an IC50 at 5-HT2A [3] of 1000 to 10000 nM.
`CC(C)c1cn(C2CCN(C)C2)c2ccc(F)cc12` (centres unmarked) [Compound 11, 5-fluoro-3-isopropyl-1-(1-methylpyrrolidin-3-yl)-1H-indole] yielded an EC50 at 5-HT2A [1] of over 10000 nM. Further, the figures for the IC50 on 5-HT2A [2] and on 5-HT2A [3] were 101 to 1000 nM and 1000 to 10000 nM, respectively.
For `Cc1cn(C2CCN(C)CC2)c2ccc(F)cc12` [Compound 9, 5-fluoro-3-methyl-1-(1-methylpiperidin-4-yl)-1H-indole], in that order: over 10000 nM, 101 to 1000 nM and 101 to 1000 nM.
`CN1CCC(n2cc(-c3ccccc3)c3cc(F)ccc32)C1` (centres unmarked) [Compound 12, 5-fluoro-1-(1-methylpyrrolidin-3-yl)-3-phenyl-1H-indole] registered an EC50 at 5-HT2A [1] of over 10000 nM. In addition, the half-inhibitory concentration (IC50) at 5-HT2A [2] and at 5-HT2A [3] was 10 to 100 nM in each case.
`COc1ccc2c(ccn2C2CNC2)c1` [Compound 29, 1-(azetidin-3-yl)-5-methoxy-1H-indole] had an EC50 on 5-HT2A [1] of over 10000 nM. The IC50 at 5-HT2A [2] and on 5-HT2A [3] was over 10000 nM in each case.
Compound `CN1CC(n2ccc3cccc(F)c32)C1` [Compound 34, 7-fluoro-1-(1-methylazetidin-3-yl)-1H-indole] showed an EC50 at 5-HT2A [1] of over 10000 nM. The IC50 at 5-HT2A [2] was in the range of 1000 to 10000 nM; at 5-HT2A [3], 101 to 1000 nM.
In the case of `CN1CCC(n2ccc3c(F)c(F)ccc32)CC1` [Compound 10, 4,5-difluoro-1-(1-methylpiperidin-4-yl)-1H-indole], the EC50 on 5-HT2A [1] is over 10000 nM. In addition, the IC50 on 5-HT2A [2] and at 5-HT2A [3] was 101 to 1000 nM throughout.
For `Cc1ccc2c(ccn2C2CN(C)C2)c1` [Compound 35, 5-methyl-1-(1-methylazetidin-3-yl)-1H-indole], the EC50 at 5-HT2A [1] is over 10000 nM. The IC50 on 5-HT2A [2] and at 5-HT2A [3] was 1000 to 10000 nM throughout.
Regarding `CN1CC(n2ccc3ccc(F)cc32)C1` [Compound 33, 6-fluoro-1-(1-methylazetidin-3-yl)-1H-indole], at 5-HT2A [1], the EC50 was over 10000 nM. Further, the IC50 on 5-HT2A [2] and on 5-HT2A [3] was 101 to 1000 nM each time.
Consider `CN1CC(n2ccc3c(F)cccc32)C1` [Compound 32, 4-fluoro-1-(1-methylazetidin-3-yl)-1H-indole], for which the EC50 on 5-HT2A [1] was over 10000 nM. The IC50 on 5-HT2A [2] and on 5-HT2A [3] was 101 to 1000 nM in each case.
At 5-HT2A [1], `COCCN1CCC(n2ccc3c(F)c(F)ccc32)C1` (centres unmarked) [Compound 23, 4,5-Difluoro-1-(1-(2-methoxyethyl)pyrrolidin-3-yl)-1H-indole] had an EC50 of over 10000 nM. The IC50 at 5-HT2A [2] and on 5-HT2A [3] was 1000 to 10000 nM throughout.
`Cc1cn(C2CCN(C)C2)c2ccc(OC3COC3)cc12` (centres unmarked) [Compound 13, 3-Methyl-1-(1-methylpyrrolidin-3-yl)-5-(oxetan-3-yloxy)-1H-indole] showed an EC50 at 5-HT2A [1] of over 10000 nM. The compound also came in with an IC50 at 5-HT2A [3] of over 10000 nM.
Regarding `Fc1ccc2c(ccn2C2CCNC2)c1F` (centres unmarked) [Compound 15, 4,5-Difluoro-1-(pyrrolidin-3-yl)-1H-indole], the EC50 at 5-HT2A [1] lay within 101 to 1000 nM. Also, the IC50 on 5-HT2A [2] and at 5-HT2A [3] was 101 to 1000 nM each time.
Regarding `Cc1cn(C2CCN(C)C2)c2ccc(F)cc12` (centres unmarked) [Compound 7, 5-Fluoro-3-methyl-1-(1-methylpyrrolidin-3-yl)-1H-indole], the EC50 on 5-HT2A [1] is over 10000 nM. The 50% inhibitory concentration (IC50) at 5-HT2A [2] and on 5-HT2A [3] was 1000 to 10000 nM each time.
In turn, `CCN1CCC(n2cc(C)c3cc(F)ccc32)C1` (centres unmarked) [Compound 16, 1-(1-Ethylpyrrolidin-3-yl)-5-fluoro-3-methyl-1H-indole] returned an EC50 on 5-HT2A [1] of over 10000 nM. On 5-HT2A [3], this compound yielded an IC50 of 1000 to 10000 nM.
Consider `Cc1cn(C2CCN(C3COC3)C2)c2ccc(F)cc12` (centres unmarked) [Compound 20, 5-fluoro-3-methyl-1-(1-(oxetan-3-yl)pyrrolidin-3-yl)-1H-indole], for which, on 5-HT2A [1], the 50% effective concentration (EC50) was over 10000 nM. This compound also gave an IC50 at 5-HT2A [3] of over 10000 nM.

What is called EC50 is the concentration that produces a half-maximal response. Read a high EC50 as weaker potency. By IC50 is commonly meant the point on the concentration scale where inhibition reaches its midpoint. Low values mean greater potency, high ones weaker potency.

The record behind these values is patent US20250101001A1 (priority 2021, published 2025).
